According to ChEMBL document CHEMBL1152541, “Staurosporine tethered peptide ligands that target cAMP-dependent protein kinase (PKA): optimization and selectivity profiling” (Bioorg Med Chem, 2009):
*1 amine or outer side, *2 acyl side, *3 side chain or, on linkers, in order; H or OH if unused. Where a SMILES comes first, the peptide text is derived from it. Bridges are numbered along the chain shown (N, C = ends). The star is where a group is joined. Staurosporine = CO[C@@H]1[C@H](N(C)*)C[C@H]2O[C@]1(C)n1c3ccccc3c3c4c(c5c6ccccc6n2c5c31)C(=O)NC4; Suc = O=C(CCC(=O)[*:2])[*:1]; βAla = NCCC(=O)O

Tests used:
[1] = Ratio of compound IC50 to bivalent ligand 1 IC50 for PKA
[2] = Noncompetitive inhibition of PKA assessed as [gamma-32P]ATP labeling of kemptide by liquid scintillation counting
[3] = Mixed inhibition of PKA assessed as [gamma-32P]ATP labeling of kemptide by liquid scintillation counting
[4] = Competitive inhibition of PKA assessed as [gamma-32P]ATP labeling of kemptide by liquid scintillation counting
[5] = Uncompetitive inhibition of PKA assessed as [gamma-32P]ATP labeling of kemptide by liquid scintillation counting
[6] = Ratio of inhibition of PKA in presence of DTT to inhibition of PKA in absence of DTT

Row | Compound | Ki [2] [µM] | Km [2] [µM] | Ratio [6] | also measured
1 | CC(C)[C@@H]1NC(=O)[C@H](CCCNC(=N)N)NC(=O)[C@H](Cc2ccccc2)NC(=O)[C@H](C(C)C)NC(=O)[C@@H](N)CSSC[C@@H](C(=O)NCC(N)=O)NC(=O)CNC(=O)[C@H](Cc2ccccc2)NC1=O (HELM PEPTIDE1{C.V.F.R.V.F.G.C.G.[am]}$PEPTIDE1,PEPTIDE1,1:R3-8:R3$$$V2.0) | 85.6 | 13.3 |  | Ratio IC50 [1]: > 21000
2 | CO[C@@H]1[C@H](N(C)C(=O)CCC(=O)NCCC(=O)NCCC(=O)NCCC(=O)NCCC(=O)NCCC(=O)NCCC(=O)NCCC(=O)NCCC(=O)NCCC(=O)N[C@H]2CSSC[C@@H](C(=O)NCC(N)=O)NC(=O)CNC(=O)[C@H](Cc3ccccc3)NC(=O)[C@H](C(C)C)NC(=O)[C@H](CCCNC(=N)N)NC(=O)[C@H](Cc3ccccc3)NC(=O)[C@H](C(C)C)NC2=O)C[C@H]2O[C@]1(C)n1c3ccccc3c3c4c(c5c6ccccc6n2c5c31)C(=O)NC4 ({Staurosporine-Suc-βAla-βAla-βAla-βAla-βAla-βAla-βAla-βAla-βAla}-CVFRVFGCG-NH2; disulfide 1-8) |  |  | 2.7 | 
3 | CC(C)C[C@H](NC(=O)[C@H](CO)NC(=O)[C@H](C)NC(=O)[C@H](CCCNC(=N)N)NC(=O)[C@H](CCCNC(=N)N)NC(=O)[C@@H](N)CC(C)C)C(=O)NCC(=O)O [KEMPTIDE] | 86 | 13.3 |  | 

The next lines start with results.

Row | Ki [2] [µM] | Km [2] [µM] | Ratio [6] | Compound | also measured
4 | 0.002 | 12 |  | CO[C@@H]1[C@H](N(C)C(=O)CCC(=O)NCCCOCCCNC(=O)COCC(=O)N[C@H]2CSSC[C@@H](C(=O)NCC(N)=O)NC(=O)CNC(=O)[C@H](Cc3ccccc3)NC(=O)[C@H](C(C)C)NC(=O)[C@H](CCCNC(=N)N)NC(=O)[C@H](Cc3ccccc3)NC(=O)[C@H](C(C)C)NC2=O)C[C@H]2O[C@]1(C)n1c3ccccc3c3c4c(c5c6ccccc6n2c5c31)C(=O)NC4 (HELM PEPTIDE1{[CO[C@@H]1[C@H](N(C)C(=O)CCC(=O)NCCCOCCCNC(=O)COCC(=O)[*:2])C[C@H]2O[C@]1(C)n1c3ccccc3c3c4c(c5c6ccccc6n2c5c31)C(=O)NC4].C.V.F.R.V.F.G.C.G.[am]}$PEPTIDE1,PEPTIDE1,2:R3-9:R3$$$V2.0) | Km [3]: 11.2 µM; Ki [4]: 10.1 µM; Km [5]: 13.9 µM
5 |  |  | 2.7 | CO[C@@H]1[C@H](N(C)C(=O)CCC(=O)NCCC(=O)NCCC(=O)NCCC(=O)NCCC(=O)NCCC(=O)N[C@H]2CSSC[C@@H](C(=O)NCC(N)=O)NC(=O)CNC(=O)[C@H](Cc3ccccc3)NC(=O)[C@H](C(C)C)NC(=O)[C@H](CCCNC(=N)N)NC(=O)[C@H](Cc3ccccc3)NC(=O)[C@H](C(C)C)NC2=O)C[C@H]2O[C@]1(C)n1c3ccccc3c3c4c(c5c6ccccc6n2c5c31)C(=O)NC4 ({Staurosporine-Suc-βAla-βAla-βAla-βAla-βAla}-CVFRVFGCG-NH2; disulfide 1-8) | 
6 |  |  | 2.7 | CO[C@@H]1[C@H](N(C)C(=O)CCC(=O)NCCC(=O)NCCC(=O)NCCC(=O)N[C@H]2CSSC[C@@H](C(=O)NCC(N)=O)NC(=O)CNC(=O)[C@H](Cc3ccccc3)NC(=O)[C@H](C(C)C)NC(=O)[C@H](CCCNC(=N)N)NC(=O)[C@H](Cc3ccccc3)NC(=O)[C@H](C(C)C)NC2=O)C[C@H]2O[C@]1(C)n1c3ccccc3c3c4c(c5c6ccccc6n2c5c31)C(=O)NC4 ({Staurosporine-Suc-βAla-βAla-βAla}-CVFRVFGCG-NH2; disulfide 1-8) | 
